As usually defined, the IC50 is the concentration needed to halve the response being measured.

Read-outs that look alike come from different tables or passages of the source.

The subject of one data set is HIV-1 (H9/IIIB strain). The data set can be described thus: Multiple round HIV-1 infection assay (Viking assay) in MT4-GFP cells. The following applies: Table 1, MT4-GFP cells infected with HIV-1 H9/IIIB. Format: cell-based. As to the method: Assessing Antiviral Potency in a Multiple Round HIV-1 Infection Assay (Viking Assay)
The antiviral activity of the tenofovir prodrugs of the Examples herein was assessed in an assay that measures the rate of replication of HIV in cell culture, termed the Viking assay (Viral KINetics in Green cells) and performed as follows. HIV-1 replication was monitored using MT4-gag-GFP clone D3 (hereafter designated MT4-GFP), which are MT-4 cells modified to harbor a GFP reporter gene, the expression of which is dependent on the HIV-1 expressed proteins tat and rev. Productive infection of an MT4-GFP cell with HIV-1 results in GFP expression approximately 24 h post-infection. MT4-GFP cells were maintained at 37° C./5% CO2/90% relative humidity in RPMI 1640 supplemented with 10% fetal bovine serum, 100 U/ml penicillin/streptomycin, and 400 μg/ml G418 to maintain the reporter gene. For infections, MT4-GFP cells were placed in the same medium lacking G418 and infected overnight with HIV-1 (H9/IIIB strain) virus at an approximate multiplicity of infection of 0.01 in the same incubation conditions. Cells were then washed and re-suspended in either RPMI 1640 supplemented with 10% or 50% normal human serum (NHS) at 1.6×10^5 cells/mL (10% NHS or 50% NHS, respectively). Compound plates were prepared by dispensing compounds dissolved in DMSO into wells of 384 well poly-D-lysine-coated plates (0.2 μl/well) using an ECHO acoustic dispenser. Each compound was tested in a 10-point serial 3-fold dilution (typical final concentrations: 8.4 μM-0.42 nM). Controls included no inhibitor (DMSO only) and a combination of three antiviral agents (efavirenz, indinavir, an in-house integrase strand transfer inhibitor at final concentrations of 4 μM each). Cells were added (50 μL/well) to compound plates and the infected cells were maintained at 37° C./5% CO2/90% relative humidity.
Infected cells were quantified at two time points, ˜48 h and ˜72 h post-infection, by counting the number of green cells in each well using an Acumen eX3 scanner. The increase in the number of green cells over ˜24 h period gives the reproductive ratio, R0, which is typically 5-15 and has been shown experimentally to be in logarithmic phase (data not shown). Inhibition of R0 is calculated for each well, and IC50s determined by non-linear 4-parameter curve fitting.

Data set [1] can be described thus: Prodrug stability assay in bio-relevant media (FaSSIF with pancreatin), GI tract stability. Format: in vitro ADME. The following applies: Table 1; % parent: HPLC peak area of prodrug at 5 h / 0 h, 0.5 mg/mL pancreatin in FaSSIF, 37° C. As to the method: Prodrug Stability Assay in Bio-Relevant Media
The following assay was employed to evaluate the stability of the prodrugs in simulated gastrointestinal tract conditions. Preparation of fasted state simulated intestinal fluid (FaSSIF) using Phares SIF Powder was carried out according to protocols from Phare Drug Delivery AG (Baselland, Switzerland). For sample preparation, 10 μL stock solutions (10 mM) of prodrug substance in DMSO was added to 990 μL of 0.5 mg/mL Pancreatin solution (Fisher CAS #8049-47-6) in FaSSIF. Two samples were prepared for each compound. If the sample was a clear solution, it was directly analyzed by HPLC. If the sample was not clear, the sample was […], maintained at 37° C. and observed 5 h later. If the sample was clear, HPLC analysis was directly performed. If the sample was still not clear, the sample was diluted with 100% ACN and assayed by HPLC. All the samples were vortexed for 3 min and observed before injection. For the diluted samples, the area is multiplied by a dilution factor when the data is analyzed. The analysis was carried out with an Agilent 1100 series HPLC with autosampler. The column was a Poroshell 120 EC-C18, 4.6×50 mm, 2.7 μm. The flow rate was 1.8 mL/min, and the injection volume was 5 or 10 μL. UV detection was in the range 210-400 nm. The mobile phase consisted of solvent A (water plus 10 mM tetrabutylammonium bromide) and solvent B (acetonitrile) with a gradient of: 90% solvent A at 0 min, changing to 95% solvent B over 6 min, maintaining for 1.5 min, then reverting to 90% solvent A over 1.6 min. The HPLC peak area of the prodrug at 5 h was divided by the HPLC peak area of the prodrug at 0 h, to generate the % claimed parent ratio, which is summarized in Table 1 for gastrointestinal (GI) Tract stability.

Setting [2] is: 10% normal human serum, read-out: Viking, IC50 (10% NHS).
The mark [3] stands for this setting: 50% normal human serum, read-out: Viking, IC50 (50% NHS).
Where [4] appears, read: read-out: Viking, IC50 (10% NHS), 10% normal human serum.
The mark [5] stands for this setting: read-out: Viking, IC50 (50% NHS), 50% normal human serum.

Turning to `CCCCCOC(=O)C(C)(C)NP(=O)(CO[C@H](C)Cn1cnc2c(N)ncnc21)OCCC(=O)OC(C)C` (single isomer, unassigned) [Example 8A], the results for the IC50 in the data set on HIV-1 (H9/IIIB strain) (setting [2]) and in the data set with HIV-1 (H9/IIIB strain) (setting [3]) were 0.00092 µM and 0.0114 µM, respectively. In data set [1], the “GI Tract stability” value is on record as 92.12%.

Turning to `CCCCCOC(=O)C(C)(C)NP(=O)(CO[C@H](C)Cn1cnc2c(N)ncnc21)OCCC(=O)OC(C)C` (single isomer, unassigned) [Example 8B], the IC50 in the data set on HIV-1 (H9/IIIB strain) (setting [2]) turned out to be 0.00759 µM; in the data set with HIV-1 (H9/IIIB strain) (setting [3]), 0.0498 µM. For the same molecule, in data set [1], the “GI Tract stability” value was found to be 99.59%.

Turning to `CC(C)OC(=O)C(C)(C)COP(=O)(CO[C@H](C)Cn1cnc2c(N)ncnc21)NC(C)(C)C(=O)OC(C)C` (single isomer, unassigned) [Example 9B], the IC50 in the data set with HIV-1 (H9/IIIB strain) (setting [2]) stood at 0.00834 µM; in the data set on HIV-1 (H9/IIIB strain) (setting [3]), 0.0264 µM. In addition, the “GI Tract stability” value in data set [1] came to 98.18%.

In the case of `CC(C)OC(=O)C[C@H](C)OP(=O)(CO[C@H](C)Cn1cnc2c(N)ncnc21)NC(C)(C)C(=O)OC(C)C` (single isomer, unassigned) [Example 10A], the IC50 in the data set on HIV-1 (H9/IIIB strain) (setting [2]) amounted to 0.0114 µM; in the data set with HIV-1 (H9/IIIB strain) (setting [3]), 0.0717 µM. Besides, the “GI Tract stability” value in data set [1] was found to be 99.75%.

Take `CCCOC(=O)C(C)(C)NP(=O)(CO[C@H](C)Cn1cnc2c(N)ncnc21)OCCc1cccc(C(=O)OC(C)C)c1` (single isomer, unassigned) [Example 11A]: the IC50 stood at 0.00218 µM in the data set with HIV-1 (H9/IIIB strain) (setting [2]) and 0.00639 µM in the data set on HIV-1 (H9/IIIB strain) (setting [3]). Also, the “GI Tract stability” value in data set [1] is 88.58%.

For the molecule `CCCOC(=O)C(C)(C)NP(=O)(CO[C@H](C)Cn1cnc2c(N)ncnc21)SCCC(=O)OC(C)C` (single isomer, unassigned) [Example 12A], the IC50 in the data set with HIV-1 (H9/IIIB strain) (setting [4]) is 0.0754 µM; in the data set with HIV-1 (H9/IIIB strain) (setting [5]), 0.322 µM. Further, in data set [1], the “GI Tract stability” value was 96.69%.

Regarding `CCCOC(=O)C(C)(C)NP(=O)(CO[C@H](C)Cn1cnc2c(N)ncnc21)SCCC(=O)OC(C)C` (single isomer, unassigned) [Example 12B], the IC50 with HIV-1 (H9/IIIB strain) (setting [4]) is 0.013 µM; in the data set on HIV-1 (H9/IIIB strain) (setting [5]) it was 0.0386 µM. The “GI Tract stability” value in data set [1] is 54.83%.

Turning to `CCCSC(=O)C(C)(C)NP(=O)(CO[C@H](C)Cn1cnc2c(N)ncnc21)OCCC(=O)OC(C)C` (single isomer, unassigned) [Example 13A], the IC50 turned out to be 0.00508 µM in the data set with HIV-1 (H9/IIIB strain) (setting [2]) and 0.0219 µM with HIV-1 (H9/IIIB strain) (setting [3]). The “GI Tract stability” value in data set [1] was determined as 76.99%.

Regarding `CCCOC(=O)C(C)(C)NP(=O)(CO[C@H](C)Cn1cnc2c(N)ncnc21)OCc1cccc(C(=O)OC(C)C)c1` (single isomer, unassigned) [Example 14A], the results for the IC50 in the data set with HIV-1 (H9/IIIB strain) (setting [2]) and in the data set on HIV-1 (H9/IIIB strain) (setting [3]) were 0.00171 µM and 0.00758 µM, respectively. In addition, in data set [1], the “GI Tract stability” value is 96.71%.
